Experimental findings from patent EP4745134A1 (Jiangsu Yahong Meditech Co., Ltd., priority 2023, dated 2025) are described below.

Test [1] relates to HCT116 MTAP KO cells. Kind of test: Inhibitory activity against cell proliferation (CellTiter Glo, 6 days), HCT116 MTAP KO. The note with it: for pIC50: Homo sapiens, HCT-116, 144 h, HCT116 MTAP KO cells, 6 days, CellTiter Glo, read-out: HCT116 MTAP KO IC50; for Selectivity HCT 116-WT/ HCT116 MTAP KO: ratio of IC50 HCT116-WT / HCT116 MTAP KO. Format: cell-based. In outline:
(§1)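 Viability IC50s come from CellTiter Glo luminescence after 6 days' exposure to compound (8 concentrations, 4-fold steps, top 10000 nM), relative to DMSO wells. Cells were MTAP-KO or WT HCT116, seeded at 250 per well in McCoy's 5A with 10% FBS and incubated overnight before dosing.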
On the technique in general: In ATP-based viability assays light output follows the ATP content of the culture.

Test [2] has as its system HCT116-WT cells. Put plainly: Inhibitory activity against cell proliferation (CellTiter Glo, 6 days), HCT116-WT. Format: cell-based. The conditions noted are these: 144 h, HCT116-WT cells, 6 days, CellTiter Glo; read-out: HCT116-WT IC50. In outline:
as §1

In test [3] the target is PRMT5-MTA (Homo sapiens, UniProt O14744). Kind of test: Enzymatic inhibitory activity against PRMT5-MTA (AlphaScreen). It counts as biochemical. The procedure, abridged:
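PRMT5/[…] (1 nM) was preincubated for 30 min at room temperature with 1 µM […] and 2.5 µM SAM, then exposed to compound (10-point, 3-fold from 1000 nM) for 15 min at 23 °C. Histone H4 substrate (5 nM) was added and reacted for 45 min at 23 °C. Symmetric dimethyl-R3 H4 was detected by AlphaScreen and IC50 calculated.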

pIC50: −log10 of the molar value. Where two headings read alike, the source gives them in different places.

Chain of PRMT5-MTA (O14744 whole entry): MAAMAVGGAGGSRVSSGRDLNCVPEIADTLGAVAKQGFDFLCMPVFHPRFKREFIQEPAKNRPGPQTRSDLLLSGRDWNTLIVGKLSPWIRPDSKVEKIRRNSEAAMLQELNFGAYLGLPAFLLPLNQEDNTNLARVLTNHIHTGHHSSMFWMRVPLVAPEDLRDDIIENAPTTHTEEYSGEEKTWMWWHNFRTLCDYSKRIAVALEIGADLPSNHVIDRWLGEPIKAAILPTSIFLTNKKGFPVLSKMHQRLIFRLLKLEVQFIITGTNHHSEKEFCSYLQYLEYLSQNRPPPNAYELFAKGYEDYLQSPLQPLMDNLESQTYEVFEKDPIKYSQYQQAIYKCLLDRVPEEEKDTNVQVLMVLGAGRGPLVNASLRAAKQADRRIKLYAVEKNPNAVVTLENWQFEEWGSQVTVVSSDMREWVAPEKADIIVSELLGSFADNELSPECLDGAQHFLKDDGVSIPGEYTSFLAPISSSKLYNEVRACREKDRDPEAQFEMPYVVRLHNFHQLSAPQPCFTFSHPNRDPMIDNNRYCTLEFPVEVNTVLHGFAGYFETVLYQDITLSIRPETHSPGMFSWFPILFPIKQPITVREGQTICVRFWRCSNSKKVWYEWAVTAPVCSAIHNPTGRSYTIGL
Chain of PRMT5-MTA (Q9BQA1 whole entry partner): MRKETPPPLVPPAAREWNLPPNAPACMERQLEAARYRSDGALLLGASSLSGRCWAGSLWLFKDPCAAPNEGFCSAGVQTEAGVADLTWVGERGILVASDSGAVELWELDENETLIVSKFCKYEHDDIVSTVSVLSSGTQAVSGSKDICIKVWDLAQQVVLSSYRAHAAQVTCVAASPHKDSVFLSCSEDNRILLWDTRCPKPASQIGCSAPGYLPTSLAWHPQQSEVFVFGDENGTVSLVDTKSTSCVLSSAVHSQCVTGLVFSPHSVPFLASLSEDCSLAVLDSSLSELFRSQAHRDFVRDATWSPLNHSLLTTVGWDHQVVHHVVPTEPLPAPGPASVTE

As for `Cn1ncc2c(N)nc3cc(Cl)c(C(=O)N4CC(F)(F)CN4c4cccc(F)c4F)cc3c21` [Example 461, (4-amino-7-chloro-1-methyl-1H-pyrazolo [4,3-c]quinolin-8-yl)(2-(2,3-difluorophenyl)-4,4-difluoropyrazolidin-1-yl)methanone], the pIC50 in test [1] is 7.82; in test [2], 6.53; in test [3] (read-out: IC50) it was 8.17. Also, in test [1], the “Selectivity HCT 116-WT/ HCT116 MTAP KO” value is 19.67.
As for `Cc1cc2nc(N)c3cnn(C)c3c2cc1C(=O)N1CC(C)CN1c1cccc(Cl)c1F` (stereo not drawn) [Example 383, (4-amino-1,7-dimethyl-1H-pyrazolo[4,3-c]quinolin-8-yl)(2-(3-chloro-2-fluorophenyl)-4-methylpyrazolidin-1-yl)methanone], the figures for the pIC50 in test [1], in test [2] and in test [3] (read-out: IC50) were 7.30, 5.75 and 8.22, respectively. Moreover, the “Selectivity HCT 116-WT/ HCT116 MTAP KO” value in test [1] turned out to be 35.34.
In the same order, the values of `Cc1cc2cc(C(=O)N(Cc3ccc(-c4cnn(CF)c4)cn3)N(C)c3ncccn3)ccc2nc1N` [Example 233, 2-amino-N-((5-(1-(fluoromethyl)-1H-pyrazol-4-yl)pyridin-2-yl)methyl)-N',3-dimet hyl-N'-(pyrimidin-2-yl)quinoline-6-carbo hydrazide] are 7.41, 5.99, 8.36 and 26.28.
Take `Cc1cc2cc(C(=O)N(Cc3ccc(-c4scnc4C#N)cn3)N(C)c3ncccn3)ccc2nc1N` [Example 243, 2-amino-N-((5-(4-cyanothiazol-5-yl)pyridin-2-yl)methyl)-N',3-dimethyl-N'-(pyrimidin-2-yl)quinoline-6-carbohydrazide]: the pIC50 in test [1] is 8.19; in test [2], 6.83; in test [3] (read-out: IC50), 8.47. The “Selectivity HCT 116-WT/ HCT116 MTAP KO” value in test [1] is 22.77.
As to `Cc1cc2cc(C(=O)N(Cc3ccc(-c4ccc(N)nc4)cn3)N(C)c3ncccn3)ccc2nc1N` [Example 144, 2-amino-N-((6'-amino-[3,3'-bipyridine]-6-yl)methyl)-N',3-dimethyl-N'-(pyrimidin-2-yl)quinoline-6-carbohydrazide], the negative-log IC50 (pIC50) in test [1] was 7.59; in test [2], 6.21; in test [3] (read-out: IC50) it was 8.82. In test [1], the “Selectivity HCT 116-WT/ HCT116 MTAP KO” value came to 23.69.
The like results for `[2H]C([2H])([2H])c1cc2cc(C(=O)N(Cc3ccc(-c4sc(C)nc4C)cn3)N(c3ncccn3)C3CC3)ccc2nc1N` [Example 317, 2-amino-N'-cyclopropyl-N-((5-(2,4-dimethylthiazol-5-yl)pyridin-2-yl)methyl)-3-(methyl-D3)-N'-(pyrimidin-2-yl)quinoline-6-carbohydrazide] were, in that order, 7.64, 6.62, 8.19 and 10.48.
In the same order, the values of `Cc1cc2nc(N)c3cnn(C)c3c2cc1C(=O)N1CC(C)(F)CN1c1ncccc1F` (stereo not drawn) [Example 422, (4-amino-1,7-dimethyl-1H-pyrazolo[4,3-c]quinolin-8-yl)(4-fluoro-2-(3-fluoropyridin-2-yl)-4-methylpyrazolidin-1-yl)metha none] are 7.68, 6.09, 8.03 and 38.38.
In the same order, the values of `Cc1cc2nc(N)c3cnn(C)c3c2cc1C(=O)N1CC(C)CN1c1ncc(-c2scnc2C)cc1F` (stereo not drawn) [Example 475, (4-amino-1,7-dimethyl-1H-pyrazolo[4,3-c]quinolin-8-yl)(2-(3-fluoro-5-(4-methylthiazol-5-yl)pyridin-2-yl)-4-methylpyrazolidin-1-yl)methanone] are 7.20, 5.56, 8.29 and 43.81.
With `Cc1cc2cc(C(=O)N(Cc3ccc(C(F)(F)F)cn3)N(C)c3ncccn3)ncc2nc1N` [Example 306, 2-amino-N',3-dimethyl-N'-(pyrimidin-2-yl)-N-((5-(trifluoromethyl)pyridin-2-yl)methyl) -1,7-naphthyridine-6-carbohydrazide], the pIC50 in test [1] was 6.50; in test [2] it was 5.41; in test [3] (read-out: IC50), 8.31. The “Selectivity HCT 116-WT/ HCT116 MTAP KO” value in test [1] came out at 12.15.
In the same order, the values of `Cc1cc2cc(C(=O)N(Cc3ccc(-c4ccc(=O)n(C)c4)cn3)N(C)c3ncccn3)ccc2nc1N` [Example 155, 2-amino-N',3-dimethyl-N-((1'-methyl-6'-oxo-1',6'-dihydro-[3,3'-bipyridine]-6-yl)methyl)-N'-(pyrimidin-2-yl)quinoline-6-car bohydrazide] are 7.38, 5.90, 8.64 and 30.00.
On to `Cc1cc2cc(C(=O)N(Cc3ccc(-c4ccsc4)cn3)N(C)c3ncccn3)ccc2nc1N` [Example 201, 2-amino-N',3-dimethyl-N'-(pyrimidin-2-y 1)-N-((5-(thien-3-yl)pyridin-2-yl)methyl) quinoline-6-carbohydrazide], for which the results for the pIC50 in test [1], in test [2] and in test [3] (read-out: IC50) were 7.29, 5.91 and 8.68, respectively. Moreover, in test [1], the “Selectivity HCT 116-WT/ HCT116 MTAP KO” value is recorded as 24.25.
Consider `CN(C(=O)c1cc2c(cc1F)nc(N)c1cnn(C)c12)N1CCc2nc(Br)ccc21` [Example 32, 4-amino-N-(5-bromo-2,3-dihydro-1H-pyrrolo[3,2-b]pyridin-1-yl)-7-fluoro-N,1-dimethy 1-1H-pyrazolo[4,3-c]quinoline-8-carboxamide], for which the pIC50 in test [1] was 6.91; in test [2] it was 5.44; in test [3], 8.60. Further, in test [1], the “Selectivity HCT 116-WT/ HCT116 MTAP KO” value was determined as 29.85.
`Cc1cc2cc(C(=O)N(Cc3ccc(C(C)(F)F)cn3)N(C)c3ncccn3)ccc2nc1N` [Example 291, 2-amino-N-((5-(1,1-difluoroethyl)pyridin-2-yl)methyl)-N',3-dimethyl-N'-(pyrimidin-2-yl)quinoline-6-carbohydrazide]: the results for the pIC50 in test [1], in test [2] and in test [3] (read-out: IC50) were 7.41, 5.98 and 8.41, respectively. Also, the “Selectivity HCT 116-WT/ HCT116 MTAP KO” value in test [1] amounted to 26.90.
The like results for `Cc1cc2cc(C(=O)N(Cc3ccc(C4CCOC4)cn3)N(C)c3ncccn3)ccc2nc1N` (stereo not drawn) [Example 217, 2-amino-N',3-dimethyl-N'-(pyrimidin-2-yl)-N-((5-(tetrahydrofuran-3-yl)pyridin-2-yl)methyl)quinoline-6-carbohydrazide] were, in that order, 7.15, 5.53, 8.54 and 42.11.
Regarding `Cn1ncc2c(N)nc3cc(Cl)c(C(=O)N4CC(OCC(F)(F)F)CN4c4ncccc4F)cc3c21` (stereo not drawn) [Example 451, (4-amino-7-chloro-1-methyl-1H-pyrazolo[4,3-c]quinolin-8-yl)(2-(3-fluoropyridin-2-yl)-4-(2,2,2-trifluoroethoxy)pyrazolidin-1-yl)methanone], the negative-log IC50 (pIC50) in test [1] is 7.40; in test [2] it was 5.99; in test [3] (read-out: IC50), 8.15. For the same molecule, the “Selectivity HCT 116-WT/ HCT116 MTAP KO” value in test [1] worked out at 25.30.

For orientation: pIC50 means the IC50 on a negative log10 scale, so that one unit is a factor of ten.
